Patent US20210308034A1, “PREBIOTIC COMPOSITIONS AND METHODS FOR MAINTAINING A HEALTHY SKIN MICROBIOTA” (KIMBERLY-CLARK WORLDWIDE, INC., priority 2018, published 2021)
Where a SMILES comes first, the peptide text is derived from it.

How the values were obtained:
Type in all cases: cell-based
[1] = system: commensal and pathogenic skin bacteria; test: Carbohydrate Screening Test Method, all bacteria codes tested; details: ten bacteria codes of Table 1
Source text: (§1) After creating desired ratios of various commensal skin bacteria in a healthy skin microbiome, 188 different carbohydrate sources were screened as the next step in determining potential prospects for skin microbiota balancing agents. The screening process was set up to determine which carbohydrate sources promoted commensal and/or pathogenic bacteria as well as to obtain individual and combinations of carbohydrate sources that could serve as microbiota balancing agents that can support or maintain the healthy proportions of commensal skin bacteria of Corynebacterium, Staphylococcus, and Micrococcus. The screening was conducted utilizing Biolog phenotype microarray plates (Hayward, Calif.). Table 1 provides a coded list of the commensal and pathogenic skin bacteria that the carbohydrates were screened against.
(§2) The Bacteria Codes B, D, E, I, and J are commensal bacteria and are shaded in Table 2 for references purposes. The bacteria codes were each placed in a carbon microarray plate and screened through the Carbohydrate Screening Test Method, as described in the Test Methods section herein. If a particular bacteria code utilized a specific carbohydrate source as described in the Carbohydrate Screening Test Method, then the corresponding cell in Table 2 was marked with a Y (short for “Yes”).
(§3) The study employed 10 representative skin bacteria; Staphylococcus epidermidis ATCC 14990, Staphylococcus epidermidis M23864:W2, Staphylococcus aureus ATCC 6538, Staphylococcus aureus ATCC 25904 (Newman), Pseudomonas aeruginosa ATCC 9027, Micrococcus luteus ATCC […], Micrococcus luteus SK58, Klebsiella pneumoniae ATCC BAA-2146, Corynebacterium amycolatum SK46, and Corynebacterium minutissimum ATCC 23348. Cultures were started from freezer bead stocks by placing a single bead into 20 mL of tryptic soy broth (TSB) for all organisms except C. amycolatum SK46 and C. minutissimum ATCC 23348, which were placed into brain heart infusion (BHI) broth. Cultures were grown for about 24 hr at 37° C. except M. luteus ATCC 49732 and M. luteus SK58, which were grown at 30° C. A passage of the culture was made using a sterile swab and streaked onto two M9*2 agar plates to prepare the incubated culture for the phenotype microarray pate according to Table 4. Plates were incubated for about 24 hr at 37° C. except for M. luteus ATCC 49732 and M. luteus SK58, which were incubated at 30° C. for 24 hr.
(§4) All cultures were harvested and washed before inoculation into the carbon microarray plate (BiOLOG, Hayward Calif.), with Biolog Plates PM1 and PM2 each having a source definition of Carbon. The bacteria on the M9*2 agar was suspended via agitation with an inoculating loop in 1 mL of M9*1 media for collection in a 1.7 mL micro centrifuge tube, as noted in Table 4. The bacteria was suspended again in M9*1 media, agitated, and collected into the same 1.7 mL microcentrifuge tube used in the previous step. The tube was centrifuged for 5 minutes at 4,000×G, supernatant decanted, the pellet was resuspended in 1 mL of M9*1 media, and vortex. This washing process was repeated for a total of 4 times.
A tenfold dilution in M9*1 media was performed using 1 mL of the washed bacterial culture.

[2] = system: Corynebacterium jeikum (ATCC 33033); test: Carbohydrate Screening Test Method (Biolog phenotype microarray), Bacteria Code B; details: Commensal; carbon microarray plate, OD 600 nm, 36 hr, 33° C.; positive = more than 0.05 OD units above zero; blank cell = not utilized
How it was run: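 Strain from M9*2 agar was suspended in M9*1 medium, washed and inoculated into Biolog PM1/PM2 carbon plates. Carbohydrate use was scored yes/no, and growth rate and maximum yield were derived with GrowthRates 2.1, with max yields used for commensal ratios.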

[3] = system: Klebsiella pneumoniae (ATCC BAA-2146); details: Pathogenic; carbon microarray plate, OD 600 nm, 36 hr, 33° C.; positive = more than 0.05 OD units above zero; blank cell = not utilized
[4] = system: Micrococcus luteus (SK58); test: Carbohydrate Screening Test Method (Biolog phenotype microarray), Bacteria Code E; details: Commensal; carbon microarray plate, OD 600 nm, 36 hr, 33° C.; positive = more than 0.05 OD units above zero; blank cell = not utilized
How it was run: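 Each commensal strain grown in Biolog carbon phenotype microarray plates with single carbohydrate sources. Growth curves fitted with GrowthRates 2.1 to give growth rate and maximum yield. Max yields used to calculate predicted co-culture ratios between Corynebacterium, Staphylococcus and Micrococcus, compared with desired ratios of 1.3, 1.4 and 1.1.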

[5] = system: Pseudomonas aeruginosa (ATCC 9027); details: Pathogenic; carbon microarray plate, OD 600 nm, 36 hr, 33° C.; positive = more than 0.05 OD units above zero; blank cell = not utilized
Source text: as §1, §2, §3, §4
A tenfold dilution in M9*1 media was performed using 1 mL of the washed bacterial culture. Of the tenfold dilution 200 μL was placed in an untreated 96-well plate (Falcon, Pasadena Tx.) for an initial optical density (OD) reading at a wavelength of 600 nm. The OD was used to correlate to colony forming units (CFU) per milliliter by using linear regression lines for each organism.

[6] = system: Staphylococcus epidermidis (M23864:W2); test: Carbohydrate Screening Test Method (Biolog phenotype microarray), Bacteria Code J; details: Commensal; carbon microarray plate, OD 600 nm, 36 hr, 33° C.; positive = more than 0.05 OD units above zero; blank cell = not utilized
Source text: as §1, §2
To do so, the respective microarray data for the 79 carbohydrate sources was run through the GrowthRates 2.1 program to obtain growth parameters, such as growth rates and maximum yield data as described by the Belingham Research Institute, Hall, B. G., H. Acar and M. Barlow. 2014 Growth Rates Made Easy. Mol. Biol. Evol. 31:232-238 doi:10.1093/molbev/mst197. The max yield parameters generated were utilized to calculate ratios of tested commensal bacteria. The ratios calculated were compared back to the desired ratios identified above (Corynebacterium to Staphylococcus of 1.3, Corynebacterium to Micrococcus of 1.4, and Staphylococcus to Micrococcus of 1.1).
As an example of this methodology used to calculate the commensal bacteria ratios and the difference between the calculated ratios and the desired ratios, an example code from Table 3 will be described. […] The max yields were then used to calculate ratios the bacteria would reach in a co-culture.

Molecule	utilization by the bacteria codes tested [1]	also measured
2,3-Butanone	not utilized by any of the bacteria	–
Nc1ncnc2c1ncn2C1CC(O)C(CO)O1 (stereo not drawn) [2-Deoxy Adenosine]	not utilized by any of the bacteria	–
O=CC[C@H](O)[C@H](O)CO [2-Deoxy-D-Ribose]	not utilized by any of the bacteria	–
O=C(O)c1ccccc1O [2-Hydroxy Benzoic Acid]	not utilized by any of the bacteria	–
O=C(CO)[C@@H](O)[C@H](O)[C@@H](O)C(=O)O [5-Keto-D-Gluconic Acid]	not utilized by any of the bacteria	–
C[C@@H](O)[C@H](O)[C@H](O)[C@@H](O)C=O [D-Fucose]	not utilized by any of the bacteria	–
O=C[C@H](O)[C@@H](O)[C@@H](O)[C@H](O)CO [D-Galactose]	–	Carbohydrate Screening Results, Bacteria Code B [2]: Y; Carbohydrate Screening Results, Bacteria Code C [3]: Y; Carbohydrate Screening Results, Bacteria Code E [4]: Y; Carbohydrate Screening Results, Bacteria Code F [5]: Y; Carbohydrate Screening Results, Bacteria Code J [6]: Y
O=C(O)[C@H](O)[C@@H](O)[C@H](O)[C@H](O)CO [D-Gluconic Acid]	–	Carbohydrate Screening Results, Bacteria Code B [2]: Y; Carbohydrate Screening Results, Bacteria Code C [3]: Y; Carbohydrate Screening Results, Bacteria Code E [4]: Y; Carbohydrate Screening Results, Bacteria Code F [5]: Y; Carbohydrate Screening Results, Bacteria Code J [6]: Y
O=C[C@H](O)[C@H](O)[C@H](O)CO [D-Ribose]	not utilized by any of the bacteria	–
N[C@H](CO)C(=O)O [D-Serine]	not utilized by any of the bacteria	–
O=C(CO)[C@@H](O)[C@@H](O)[C@H](O)CO [D-Tagatose]	not utilized by any of the bacteria	–
O=C(O)[C@@H](O)[C@H](O)C(=O)O [D-Tartaric Acid]	not utilized by any of the bacteria	–
NCC(=O)O [Glycine]	not utilized by any of the bacteria	–
NCC(=O)N1CCC[C@H]1C(=O)O [Glycyl-L-Proline] (H-Gly-Pro-OH)	not utilized by any of the bacteria	–
OC[C@H](O)C(O)[C@@H](O)CO [L-Arabitol]	not utilized by any of the bacteria	–
O=C[C@@H](O)[C@H](O)[C@@H](O)[C@@H](O)CO [L-Glucose]	not utilized by any of the bacteria	–
NCCCC[C@H](N)C(=O)O [L-Lysine]	not utilized by any of the bacteria	–
O=C[C@H](O)[C@H](O)[C@@H](O)CO [L-Lyxose]	not utilized by any of the bacteria	–
N[C@@H](Cc1ccccc1)C(=O)O [L-Phenylalanine]	not utilized by any of the bacteria	–
CC(C)[C@H](N)C(=O)O [L-Valine]	not utilized by any of the bacteria	–
CC(=O)N[C@H]1[C@H]([C@H](O)[C@H](O)CO)OC(O)(C(=O)O)C[C@@H]1O (stereo partly drawn) [N-Acetyl-Neuraminic Acid]	not utilized by any of the bacteria	–
CCC(C)N (stereo not drawn) [Sec-Butylamine]	not utilized by any of the bacteria	–
OC[C@@]12OC[C@@H](O1)[C@@H](O)[C@@H](O)[C@@H]2O [Sedoheptulosan]	not utilized by any of the bacteria	–
C/C=C/C=C/C(=O)O [Sorbic Acid]	not utilized by any of the bacteria	–
OC[C@@H](O)[C@H](O)[C@@H](O)CO [Xylitol]	not utilized by any of the bacteria	–
